Here are results for four compounds from publication PMC12648101, “Targeting SARS-CoV-2 main protease for the discovery of a broad-spectrum COVID-19 inhibitor by intensive multi-tiered validation” (Acta Pharmaceutica Sinica. B, 2025).

Entries after “also recorded” stand apart in the source; their conditions may differ. Where two headings read alike, the source gives them in different places. A value given as a limit tells only on which side of the number the result lay.

A short description of data set [1]: Caco-2 bidirectional permeability assay. In kind it is in vitro ADME. As to conditions: human, pH 7.4. (In general: Caco-2 monolayers are a common model of the intestinal barrier.)
The test system of data set [2] is Caco-2 cells. Kind of data set: Caco-2 bidirectional permeability assay. In kind it is in vitro ADME.
In data set [3] the test system is SARS-CoV-2 WT. In kind it is in vivo, K18-hACE2 transgenic mice. The following applies: for lung live viral titers vs Virus group: three days post-infection; for body weight of infected mice: 1000 FFU SARS-CoV-2 WT.
The subject of data set [4] is SARS-CoV-2 Omicron BA.2.3. Kind of data set: microbe, parasite or virus in culture. It is filed as cell-based. The following applies: Severe acute respiratory syndrome coronavirus 2, Vero C1008, 48 h.
Data set [5] is described as follows: Acute toxicity test in mice. It is filed as in vivo, C57BL/6 mice. As to conditions: 200 and 500 mg/kg, i.g. The method, then: Specific-pathogen-free (SPF) C57BL/6 mice were used, balanced for gender, with males and females weighing 18–20 g. The Institutional Committee approved all animal experiment procedures in this study for Animal Care and Biosafety at the Animal Center, Tianjin University of Traditional Chinese Medicine. CHLA was weighed and subsequently dissolved in a 5% DMSO solution, which was then diluted with normal saline (0.9% sodium chloride solution) and mixed to achieve the desired concentration. To evaluate CHLA's acute toxicity, mice were randomly allocated into three groups (n = 10): a control group administered normal saline, and two treatment groups administered CHLA solution at 200 and 500 mg/kg, respectively. We monitored all mice that occurred twice daily over 14 days, focusing on toxicological signs, changes in body weight, and behavioral abnormalities. Upon concluding the study, specimens from blood, heart, liver, spleen, lung, and kidney were harvested for analysis.

The nature of data set [6]: Pharmacokinetic study in rats (LC-MS/MS). In kind it is in vivo, Sprague–Dawley (SD) rats. The following applies: male, Sprague-Dawley, plasma, rat. The method, then:
The PK study was strictly conducted according to the National Medical Products Administration (NMPA) Good Laboratory Practice (GLP) guidelines, which was undertaken at the Animal Center of Tianjin University of Traditional Chinese Medicine. Sprague–Dawley (SD) rats were supplied by Beijing Vital River Laboratory Animal Technology Co., Ltd. (Beijing, China). Male SD rats (n = 5 per group, weights: 180–200 g and age: 6–8 weeks) were administered by CHLA (solubilized in DMSO: 0.9% NaCl = 5:95, v/v) at doses of 10 and 5 mg/kg via intragastric (i.g.) and intravenous (i.v.) routes, respectively. Blood samples were collected at specified intervals post-administration (0.033, 0.083, 0.166, 0.25, 0.5, 1, 4, 6, 8, 12, 24, 36, and 48 h), followed by centrifugation at 4000 rpm (Thermo Scientific Sorvall ST 40R Centrifuge, Osterode, Germany) and 4 °C for 10 min. The supernatant plasma was stored at −20 °C for subsequent analysis.
Analysis was performed on a Shimadzu LC-20AD Prominence Liquid Chromatograph (Shimadzu Corporation, Japan)–AB Sciex API […] mass spectrometer (Applied Biosystems, USA) (LC–MS/MS). Samples were separated on an Agilent Poroshell 120 EC-C18 column (2.7 μm, 3.0 mm × 50 mm) (Agilent, USA). The column temperature was 35 °C, and the mobile phase consisted of water with 0.1% formic acid (v/v, buffer A) and acetonitrile with 0.1% formic acid (v/v, buffer B). The elution was conducted according to a 5-min gradient program (0–0.5 min, 10% buffer B; 0.5–2 min, 10%–90% buffer B; 2–3.5 min, 90% buffer B; 3.5–5 min, 10% buffer B), with the flow rate set at 0.5 mL/min and the injection volume at 10 μL. The mass spectrometry operated in positive MRM mode, targeting the precursor and product ions of CHLA (m/z 953.3 →301.1 and 953.3 →275.1, respectively). Tolbutamide served as the internal standard (IS), with precursor and product ions at 269.1 →170.1. The parameters were analyzed by […] via DAS 3.2.8 software. The regression equation for CHLA, based on the peak area ratio of CHLA to IS against the concentration, was (Eq. (1)):(1) y=0.0000796x+0.000162(r=0.9968) indicating a strong correlation.

Data set [7] relates to SARS-CoV-2 Delta. As to the kind of experiment: microbe, parasite or virus in culture. In kind it is cell-based. The following applies: Severe acute respiratory syndrome coronavirus 2, Vero C1008, 48 h.
For data set [8], the system named is SARS-CoV-2 Omicron BA.5. As to the kind of experiment: microbe, parasite or virus in culture. It is filed as cell-based. The following applies: Severe acute respiratory syndrome coronavirus 2, Vero C1008, 48 h.
Data set [9] can be described thus: Cell viability assay (CCK-8). The following applies: African green monkey; Vero E6 cells, CCK8, 48 h. It is filed as cell-based. The method, then:
Cell viability was assessed using the Cell Counting Kit-8 assay (CCK-8, MedChemExpress, China). In brief, Vero E6 cells (ATCC, CRL-1586) at a density of 5 × 10^4 cells/well were seeded into 96-well plates for 24 h. Cells were cultured in Dulbecco's modified Eagle's medium (DMEM) (Gibco, USA), supplemented with 10% (v/v) serum, 100 U/mL penicillin, and 100 μg/mL streptomycin. Serial dilutions of CHLA (200 μL) at concentrations of 100, 80, 60, 40, 20, 10, and 5 μmol/L were added to wells and incubated for another 24 or 48 h, respectively. Following the incubation, the existing medium was replaced with fresh medium containing a 10% CCK-8 solution and incubated at 37 °C for 1 h. Absorbance at 450 nm was measured using a Microplate Reader (TECAN Sunrise™) to determine the final optical density. Data were analyzed using GraphPad Prism 8.0 software (version 8.0). All experiments were performed in triplicate to ensure reliability.

Data set [10] relates to SARS-CoV-2 WT. Kind of data set: Antiviral CPE assay in infected Vero E6 cells. It is filed as cell-based. The following applies: Severe acute respiratory syndrome coronavirus 2, Vero C1008, Vero E6, MOI 0.01, 48 h.
Data set [11] has as its system SARS-CoV-2 Omicron BA.4. Kind of data set: microbe, parasite or virus in culture. It is filed as cell-based. As to conditions: Severe acute respiratory syndrome coronavirus 2, Vero C1008, 48 h.
A short description of data set [12]: Solubility of the dosing preparation at the effective dose. It is filed as physicochemical. The following applies: 300 mg/kg dose, saline with 5% DMSO. Here is the method:
In vivo, a total of 20 female K18-hACE2 transgenic mice aged 8 weeks were obtained from GemPharmatech (Nanjing, China), which were classified into four groups with five mice in each group: Group 1 served as the untreated, infected control (Virus group); Group 2 received 300 mg/kg of PF-07321332 as the positive control; and Groups 3 and 4 were administered CHLA at doses of 150 and 300 mg/kg, respectively. On Day 0, these K18-hACE2 mice were intranasally inoculated with 1000 FFU of SARS-CoV-2 WT, which was pre-diluted in 50 μL of DMEM. The therapeutic administration was commenced 2 h after infection. The K18-hACE2 transgenic mice were orally administered with either PF-07321332 (300 mg/kg) or CHLA at varying doses (150 and 300 mg/kg), which were dissolved in a saline solution containing 5% DMSO. The mice were euthanized three days post-administration, and the lungs were collected and placed in 1 mL PBS and preserved at −80 °C to evaluate pulmonary virus titers.

The test system of data set [13] is SARS-CoV-2 Omicron BA.1.1. Kind of data set: microbe, parasite or virus in culture. It is filed as cell-based. As to conditions: Severe acute respiratory syndrome coronavirus 2, Vero C1008, 48 h.
Data set [14] relates to E166V mutation of M^pro. The following applies: E166V mutant vs wild-type M^pro; cited from earlier work.

Take `Nc1cc(N2CCCCC2)nc(N)[n+]1[O-]` [Minoxidil]: in data set [1] (Caco-2, 5 μmol/L), the apparent permeability from apical to basolateral (Papp A→B) (commonly the apparent permeability from the apical to the basolateral side of a cell layer) at 2 h, 5 μmol/L worked out at 59.4 nm/s and the efflux ratio – broadly, the permeability from basolateral to apical divided by that in the opposite direction, in the common usage – at 2 h, 5 μmol/L worked out at 0.96. Moreover, in data set [1] (Caco-2, 5 µmol/L, Table S3), the Papp B→A (commonly the apparent permeability from the basolateral to the apical side of a cell layer) at 2 h, 5 μmol/L was determined as 57.1 nm/s. Further, the “Papp (A–B)” value in data set [2] (Caco-2, 5 µmol/L, Table S3) is 5.94 10-6, cm/s.
Take `O=C(O)C[C@@H]1C(=O)O[C@H]2[C@@H]3OC(=O)c4cc(O)c(O)c(O)c4-c4c(cc(O)c(O)c4O)C(=O)OC[C@H]2O[C@@H](OC(=O)c2cc(O)c(O)c(O)c2)[C@@H]3OC(=O)c2cc(O)c(O)c3c2[C@H]1[C@H](O)C(=O)O3` [CHLA, chebulagic acid]: the “lung live viral titers vs Virus group” value in [3] (150 mg/kg oral) is “no significant difference”. Besides, in [3] (300 mg/kg oral), the “body weight of infected mice” value is “weight recovery” and the “lung live viral titers vs Virus group” value is given as “significant decrease”. For the same compound, the “antiviral efficacy compared with positive control PF-07321332 (300 mg/kg)” value in data set [3] (300 mg/kg oral, P > 0.05) is “equivalent to that of PF-07321332; also recorded: comparable to that of PF-07321332”. Besides, a half-maximal effect in data set [4] (EC50) was put at 1.11 µM. Besides, in data set [5], the “histology of lung, heart, spleen, liver and kidney” value is “No obvious histological changes”. Also, in data set [5] (14 days), the “acute oral toxicity, overall finding” value is “safe” and the “body weight vs control group” value was “no significant difference”. For the same compound, in data set [6] (iv, i.v. 5 mg/kg), the AUC(0-t) – broadly, exposure summed from dosing to a finite time, without extrapolation to infinity – was found to be 16.3 ± 1.98 µg·h/mL; the Cmax (as a rule, the maximum level reached in the sampled fluid or tissue) was 4.16 ± 0.0794 µg/mL; the Tmax (usually the time from dosing to the highest level) is 0.033 h; the half-life (usually the time in which the quantity being followed falls by half) is 39.6 ± 13.5 h. Further, the bioavailability (as a rule, dose-corrected exposure relative to a reference, in per cent) in data set [6] (oral, i.g. 10 mg/kg vs i.v. 5 mg/kg, read-out: oral bioavailability (F)) was determined as 7.1%. Also, in data set [6] (po, i.g. 10 mg/kg), the AUC(0-t) is 2.32 µg·h/mL, the highest level (Cmax) was 0.241 µg/mL, the Tmax amounted to 2 h and the half-life is 15.2 h. For the same compound, the midpoint of the response in [7], the EC50, lay at 1.86 µM. Besides, the EC50 (in general, the concentration giving half of the maximal effect) in data set [8] worked out at 1.91 µM. Besides, the CC50 (usually the concentration giving 50% cytotoxicity) at 48 h in [9] is greater than 100 µM. The midpoint of the response in [10], the EC50, lay at 0.43 µM. Besides, the response in data set [11] was half-maximal at 1.89 µM (EC50). Also, the “solubility at the effective dose” value in data set [12] was “superior solubility”. The compound further registered an EC50 in data set [13] of 0.82 µM. In data set [1] (Caco-2, 5 μmol/L), the Papp A→B at 2 h, 5 μmol/L came out at 12 nm/s; the Papp B→A at 2 h, 5 μmol/L was 3.9 nm/s; the efflux ratio at 2 h, 5 μmol/L was found to be 0.33. For the same compound, the “membrane permeability, in words” value in data set [2] (Caco-2, 5 μmol/L) is recorded as “moderate membrane permeability”. Moreover, in data set [2] (Caco-2, 5 µmol/L, Table S3), the “Papp (A–B)” value was 1.20 10-6, cm/s and the “Papp (B–A)” value is listed as 0.39 10-6, cm/s.
Turning to `CC(C)(C)[C@H](NC(=O)C(F)(F)F)C(=O)N1C[C@H]2[C@@H]([C@H]1C(=O)N[C@H](C#N)C[C@@H]1CCNC1=O)C2(C)C` [PF-07321332, reference compound], in data set [3] (300 mg/kg oral), the “body weight of infected mice” value is reported as “weight recovery”. For the same compound, the “lung live viral titers vs Virus group” value in data set [3] (300 mg/kg oral) is “significant decrease”. The EC50 in data set [4] turned out to be 0.04 µM; in [7] it was 0.05 µM; in [8], 0.04 µM; in data set [10], 0.03 µM; in data set [11] it was 0.08 µM; in data set [13] it was 0.05 µM. In addition, the “loss of inhibitory efficacy caused by the E166V mutation” value in data set [14] is “over 200 fold”. The “solubility at the effective dose” value in data set [12] is “poor solubility”.
Consider `C[C@H]1O[C@@H](O[C@H]2[C@@H](O)C[C@H](O[C@H]3[C@@H](O)C[C@H](O[C@H]4CC[C@@]5(C)[C@H](CC[C@@H]6[C@@H]5C[C@@H](O)[C@]5(C)[C@@H](C7=CC(=O)OC7)CC[C@]65O)C4)O[C@@H]3C)O[C@@H]2C)C[C@H](O)[C@@H]1O` [Digoxin], for which the efflux ratio at 2 h, 5 μmol/L in data set [1] (Caco-2, 5 μmol/L) was 29.6. Besides, in data set [1] (Caco-2, 5 µmol/L, Table S3), the Papp A→B at 2 h, 5 μmol/L came out at 6.8 nm/s and the Papp B→A at 2 h, 5 μmol/L amounted to 202 nm/s.
